The source of these data is patent US5328909A, “Cyclopropenone derivatives” (Mitsubishi Kasei Corporation, priority 1991, dated 1994).

Series [1] deals with T1, papain (Carica papaya, UniProt P00784).
T1 sequence (P00784 134-345): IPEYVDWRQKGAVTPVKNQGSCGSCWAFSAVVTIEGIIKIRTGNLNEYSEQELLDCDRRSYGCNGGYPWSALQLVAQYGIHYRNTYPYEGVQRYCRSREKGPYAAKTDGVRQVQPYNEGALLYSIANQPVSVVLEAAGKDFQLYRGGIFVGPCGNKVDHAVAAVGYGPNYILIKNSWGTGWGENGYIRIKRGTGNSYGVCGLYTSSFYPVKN
Kind of series: Thiol protease inhibitory activity against papain (P-3125, Sigma). In kind it is biochemical. The procedure: (§1) Inhibitory activity against papain (P-3125, Sigma) and cathepsin B (C-6286, Sigma) was assayed according to the method described in a literature [Biochemical Journal, 201, 189 (1982)]. Capthesin L was purified from rat kidney according to the method in a literature [Journal of Biochemistry, 100, 35 (1986)], and the inhibitory activity against it was assayed in the same manner as described in the above literature for cathepsin B. Further, m-calpain was purified from rat brain according to a known method [Journal of Biological Chemistry, 254, p.3210 (1984)] and the inhibitory activity against it was assayed by a method described in a literature [Journal of Biological Chemistry, 259, 12489 (1984)]. The results are showing in Tables 3 and 4. It is evident from Tables 3 and 4 that the compounds in the present invention have a potent inhibitory activity against thiol proteases such as papain, cathepsin B, cathepsin L, m-calpain or the like.

Series [2] addresses T2, cathepsin B (Bos taurus, UniProt P07688).
T2 construct: purchased Sigma C-6286
Kind of series: Thiol protease inhibitory activity against cathepsin B (C-6286, Sigma). In kind it is biochemical. On the procedure:
as §1

Series [3] concerns the target T3, cathepsin L (Rattus norvegicus, UniProt P07154).
T3 construct: Capthesin L was purified from rat kidney; from tissue; host or cells: rat kidney
The experiment in a line: Thiol protease inhibitory activity against cathepsin L purified from rat kidney. In kind it is biochemical. On the procedure: as §1

Series [4] addresses T4, m-calpain (Rattus norvegicus, UniProt Q07009).
T4 construct: m-calpain was purified from rat brain; from tissue; host or cells: rat brain
T4 sequence (Q07009 20-700 limits assumed): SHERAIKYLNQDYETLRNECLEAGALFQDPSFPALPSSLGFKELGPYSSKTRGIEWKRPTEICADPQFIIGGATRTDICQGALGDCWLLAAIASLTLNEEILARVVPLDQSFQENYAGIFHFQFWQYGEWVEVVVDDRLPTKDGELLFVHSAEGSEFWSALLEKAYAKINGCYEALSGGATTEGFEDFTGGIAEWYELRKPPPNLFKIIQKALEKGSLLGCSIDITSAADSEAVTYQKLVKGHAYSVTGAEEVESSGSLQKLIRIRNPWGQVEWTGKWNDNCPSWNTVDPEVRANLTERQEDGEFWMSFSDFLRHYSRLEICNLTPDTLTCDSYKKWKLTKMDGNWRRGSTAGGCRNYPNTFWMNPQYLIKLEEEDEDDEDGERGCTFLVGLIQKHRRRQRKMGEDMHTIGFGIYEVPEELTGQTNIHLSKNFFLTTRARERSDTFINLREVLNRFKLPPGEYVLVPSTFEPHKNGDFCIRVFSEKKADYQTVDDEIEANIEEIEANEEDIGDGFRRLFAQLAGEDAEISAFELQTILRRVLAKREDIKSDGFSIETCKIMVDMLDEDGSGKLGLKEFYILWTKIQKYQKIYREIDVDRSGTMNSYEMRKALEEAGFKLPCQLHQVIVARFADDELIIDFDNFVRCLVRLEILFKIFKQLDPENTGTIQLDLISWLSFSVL
T4 sequence (Q64537 1-270 partner): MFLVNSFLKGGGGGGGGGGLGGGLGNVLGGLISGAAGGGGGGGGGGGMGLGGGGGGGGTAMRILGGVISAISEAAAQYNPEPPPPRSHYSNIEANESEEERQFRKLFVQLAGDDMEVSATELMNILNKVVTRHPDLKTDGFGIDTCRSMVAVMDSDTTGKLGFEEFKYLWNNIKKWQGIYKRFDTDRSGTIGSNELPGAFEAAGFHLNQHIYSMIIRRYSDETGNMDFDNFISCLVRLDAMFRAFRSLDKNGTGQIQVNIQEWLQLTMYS
Kind of series: Thiol protease inhibitory activity against m-calpain purified from rat brain. In kind it is biochemical. The gist of the method: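 Papain and bovine cathepsin B assayed by a published method; cathepsin L purified from rat kidney and tested as for cathepsin B. m-Calpain purified from rat brain and assayed by a separate published method.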

Series [5] is described as follows: Acute oral toxicity, rats observed for 7 days. The note with it: rat, in vivo, suspension in 0.5% CMC-Na aqueous solution, SD female and male rats, 7 days observation. On the procedure: The LD50 value of the compound (I) prepared in Example 1 is: >2,000 mg/kg.
In series [6] the test system is microtubule-associated protein. The note with it: after the brain ischemia; cited from earlier work.
For series [7], the system named is experimental muscular dystrophy hamster. As to conditions: cited from earlier work.
Series [8] has as its system aggregation of platelet caused by thrombin. The note with it: cited from earlier work.
In series [9] the test system is cataract animal models. As to conditions: cited from earlier work.
The test system of series [10] is rat with enhanced bone destruction by administration of parathyroid hormone. The note with it: cited from earlier work.
In series [11] the test system is production of IgE. As to conditions: cited from earlier work.
Series [12] deals with cardiac infarction animal models. As to conditions: cited from earlier work.
The test system of series [13] is brain trauma models of rat. The note with it: cited from earlier work.
Where [14] appears, read: Table 3, read-out: IC50 (μM) papain.
[15] abbreviates: Table 3, read-out: IC50 (μM) cathepsin B.
The mark [16] stands for this setting: Table 3, rat kidney enzyme, read-out: IC50 (μM) cathepsin L.
Setting [17] is: Table 3, rat brain enzyme, read-out: IC50 (μM) m-calpain.

Each structure is given as a SMILES string. Where two headings read alike, the source gives them in different places.

T3 sequence (P07154 114-288 limits assumed): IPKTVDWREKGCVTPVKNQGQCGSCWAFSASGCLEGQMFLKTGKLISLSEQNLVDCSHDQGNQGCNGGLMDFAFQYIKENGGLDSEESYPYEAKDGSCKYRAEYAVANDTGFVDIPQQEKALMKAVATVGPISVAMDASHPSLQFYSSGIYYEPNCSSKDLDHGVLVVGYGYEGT
T3 sequence (P07154 291-334 limits assumed): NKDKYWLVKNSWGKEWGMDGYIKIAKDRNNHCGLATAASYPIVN

As a reminder, the IC50 is the concentration that gives 50% inhibition. One may read the LD50 as the dose expected to kill half of the subjects tested. Higher therefore signals a less toxic substance. Turning to `CC(C)C[C@H](NC(=O)OCC1CCCCC1)C(=O)N[C@@H](C(C)C)[C@@H](O)c1c(-c2ccccc2)c1=O` [1 (No. 77), 2-[(1S,2S)-2-{(s)-2-cyclohexylmethoxycarbonylamino-4-methylvalerylamino}-1-hydroxy-3-methylbuthyl]-3-phenylcyclopropenone], the IC50 in series [1] (setting [14]) turned out to be 0.054 µM; in series [2] (setting [15]), 0.71 µM; in series [3] (setting [16]), 0.00086 µM; in series [4] (setting [17]) it was 1.6 µM. Besides, the 50% lethal dose (LD50) at 168 h in series [5] was above 2000 mg/kg.
Turning to `CCCC[C@H](NC(=O)[C@H](CC(C)C)NC(=O)OCc1ccccn1)C(O)c1c(-c2ccccc2)c1=O` (some centres unmarked) [96 (No. 282)], the IC50 in series [1] turned out to be 7 µM; in series [2] (setting [15]) it was 28 µM; in series [3] (setting [16]) it was 4.6 µM; in series [4] (setting [17]) it was 5.7 µM.
With `CCCC[C@H](NC(=O)[C@H](CC(C)C)NC(=O)OCC1CCCCC1)C(O)c1c(-c2ccc([Si](C)(C)C)o2)c1=O` (stereo partly drawn) [114 (No. 376), 2-[(2S)-2-((S)-2-cyclohexylmethoxycarbonylamino-4-methylvalerylamino)-1-hydroxy-1-hexyl]-3-(5-trimethylsilyl-2-furil)cyclopropenone], the IC50 stood at 0.68 µM in [1] (setting [14]), 2.5 µM in series [2], 0.58 µM in series [3] and 5.6 µM in series [4].
Taken in the same sequence, the figures for `CCCC[C@H](NC(=O)[C@H](CC(C)C)NC(=O)OCC1CCCCC1)C(O)c1c(-c2ccc([Si](C)(C)C)s2)c1=O` (stereo partly drawn) [115 (No. 387), 2-[(2S)-2-((S)-2-cyclohexylmethoxycarbonylamino-4-methylvalerylamino)-1-hydroxy-1-hexyl]-3-(5-trimethylsilyl-2-thienyl)cyclopropenone] were 0.48 µM, 1.5 µM, 0.27 µM and 11 µM.
Turning to `CC(C)CCNC(=O)[C@H](CC(C)C)NC(=O)[C@H]1O[C@@H]1C(=O)O` [E-64-C], the “degradation of microtubule-associated protein” value in series [6] was “inhibits the degradation of microtubule-associated protein”.
For the compound `CCOC(=O)[C@H]1O[C@@H]1C(=O)N[C@@H](CC(C)C)C(=O)NCCC(C)C` [E-64-d], in [7], the life-prolonging effect entry is on record as “life-prolonging effect”. For the same compound, the aggregation of platelet entry in [8] was “suppressed aggregation of platelet”.
`CC(C)C[C@H](NC(=O)[C@H]1O[C@@H]1C(=O)O)C(=O)NCCCCNC(=N)N` [E-64]: in series [9], the effect on cataract result is “effective on cataract”. Moreover, in series [10], the “calcium concentration in blood” value is reported as “decrease” and the “hydroxyproline concentration in blood” value is “decrease”.
For the compound `NC(N)=NCCCCNC(=O)[C@H](Cc1ccccc1)NC(=O)[C@H]1O[C@@H]1C(=O)O` [Estatin A], in series [11], the “production of IgE” value is recorded as “specifically inhibit the production of IgE” and the “production of IgG” value is given as “without affecting on the production of IgG”. Moreover, in series [10], the “calcium concentration in blood” value is on record as “decrease” and the “hydroxyproline concentration in blood” value is recorded as “decrease”.
As for `CCOC(=O)[C@@H]1O[C@H]1C(=O)NC(CC(C)C)C(=O)N1CCN(Cc2ccc(OC)c(OC)c2OC)CC1.CCOC(=O)[C@@H]1O[C@H]1C(=O)NC(CC(C)C)C(=O)N1CCN(Cc2ccc(OC)c(OC)c2OC)CC1.O=S(=O)(O)O` (some centres unmarked) [NCO-700], in series [12], the “effect on cardiac infarction” value is given as “effective on cardiac infarction”.
Turning to `CC(=O)N[C@@H](CC(C)C)C(=O)N[C@@H](CC(C)C)C(=O)N[C@H](C=O)CCCNC(=N)N` [leupetin], the axon protection result in series [13] was “can protect axon”.
